{
  "source": "patent US20100261682A1",
  "about": "“Method and Means for the Treatment of Cachexia” (Bioneris AB, priority 2007, published 2010)",
  "assay_type_in_all_cases": "in vivo, NMRI mice",
  "key": {"[1]": {"test_system": "caspase 3", "experiment": "Caspase 3 activity in gastrocnemius muscle", "settings": "40 mg/kg; still significantly higher than in non-tumour-bearing animals", "experimental": "(§1) Administration of alpha-trinositol. Mice (n=6) bearing the MAC16 tumour were treated with AT (40 mg/kg) s.c., 3 times per day, for 5 days, while a control group received PBS. Protein synthesis and degradation were determined by the incorporation and release of L-[2,6-^3H]phenylalanine, as described in Smith et al., Cancer Res., 2005; 65:277-83. On the fourth day of treatment half of the group administered 0.4 mmol/L L-[2,6-^3H]phenylalanine in PBS (100 μl) by i.p. administration.\nDetermination of Caspase activity. The activity of caspase 3 was determined by the release of 7-amino-4-methylcoumarin (AMC) from the specific substrate AcDEVD-AMC in the presence or absence of the caspase 3 inhibitor AcDEVD-CHO. […] The supernatant (50 μg protein) was incubated with the caspase 3 substrate for 1 h and the increase in fluorescence due to AMC was determined at an excilation wavelength of 370 nm and an emission wavelength of 430 nm. […] The increase in fluorescence due to the release of 7-amino-4-trifluoro-methylcoumarin (AFC) was measured with an excitation wavelength of 400 nm and an emission of 505 nm."}, "[2]": {"test_system": "20S proteasome α-subunits", "experiment": "Western blot of gastrocnemius muscle: 20S proteasome α-subunits", "settings": "40 mg/kg s.c., 3 times per day", "experimental": "as §1\n(§2) Western blot analysis Gastrocnemius muscle (10 mg) was homogenised in Phosphosafe™ Extraction Reagent (500 μl) and centrifuged at 15000 g for 15 min. Samples of the cytosolic proteins (5 μg) were loaded on either a 10% (mTOR, myosin, eIF4E and eIF4G) 12% (PKR, eIF2α and actin) or 15% (4E-BP1) sodium dodecylsulphate-polyacrylamide gel (SDS-PAGE) and electrophoresed at 180 V for approximately 1 h. The extent of phosphorylation of 4E-BP1, and the association of 4E-BP1 and eIF4G with eIF4E was determined by Western blotting when eIF4E was extracted from the muscle samples by m^7GTP-Sepharose 4B-affinity binding, as previously described Eley ey al., Biochem J., 2007; 407:113-20, by loading 20 μg of protein. […] Blots were scanned by a densitometer to quantify differences."}, "[3]": {"test_system": "mice bearing the MAC16 tumour", "experiment": "Body weight change in cachectic mice bearing the MAC16 tumour treated with alpha-trinositol (Example 1)", "experimental": "Materials. Alpha-trinositol (1-D-Myo-inositol 1,2,6-triphosphate) was prepared according to U.S. Pat. No. 4,777,134. In a glass ampoule a stock solution was prepared by dissolving 1 g of alpha-trinositol in saline to a total volume of 10 ml. The stock solution was stored in a refrigerator for use within 24 hrs.\n(§3) Animals. Pure strain male NMRI mice (average body weight 25 g) were transplanted with fragments of the MAC16 tumour subcutaneously into the flank by means of a trochar, selected from donor animals with established weight loss (Bibby M C et al., Characterization of transplantable adenocarcinoma in the mouse colon producing cachexia in the recipient animals. J Natl Cancer Inst 78 (1987) 539-546). Transplanted animals were given a rat and mouse breeding diet (Special Diet Services, Witham, UK) and water at lib. Weight loss was evident 10 to 12 days after tumour implantation. Just prior to the development of weight loss 24 animals were randomized into four groups (I-IV) of six animals each.\n(§4) Administration of alpha-trinositol. A first experiment was started when the animals had lost about 5% of body weight. Aliquots (2.5 μl, Group I; 5 μl, Group II; 10 μl, Group III) of alpha-trinositol stock solution corresponding to doses of 10 mg/kg, 20 mg/kg, and 40 mg/kg for a 25 g animal were administered subcutaneously three times per day at 8.00, 12.00 and 16.00 hrs. The fourth group (Group IV; control) was given an intravenous injection of 10 μl of water. Body weight (FIG. 1), tumour volume (FIG. 2), and water and food intake were determined daily after the last injection."}, "[4]": {"test_system": "eIF2α", "experiment": "Western blot of gastrocnemius muscle: phospho eIF2α/total eIF2α", "settings": "40 mg/kg; tumour-bearing animals", "experimental": "as §1, §2"}, "[5]": {"test_system": "mTOR", "experiment": "Western blot of gastrocnemius muscle: phosphorylated (Ser2448) mTOR", "settings": "40 mg/kg; after 4 days treatment", "experimental": "as §1, §2"}, "[6]": {"test_system": "cachectic MAC16 mice", "experiment": "Body composition of cachectic MAC16 mice after alpha-trinositol treatment (Example 2)", "settings": "for Body composition: Fat / Body composition: Lean mass / Body composition: Water: mean ± SD", "description": "as §3, §4\nAt the end of the treatment described in Example 1 the mice were sacrificed, and their body composition was analyzed. […] The reduction of lean body mass is normally observed in cachectic patients and is a significant cause of morbidity. No significant change in water content was observed."}, "[7]": {"test_system": "4E-BP1 associated with eIF4E", "experiment": "Western blot after m7GTP-Sepharose extraction: 4E-BP1 associated with eIF4E", "settings": "40 mg/kg", "experimental": "as §1, §2"}, "[8]": {"settings": "alpha-Trinositol 10 (mg/ml as printed)"}, "[9]": {"settings": "alpha-Trinositol 20 (mg/ml as printed)"}, "[10]": {"settings": "alpha-Trinositol 40 (mg/ml as printed)"}},
  "data": [
    {"smiles": "O=P(O)(O)O[C@@H]1[C@H](OP(=O)(O)O)[C@H](O)[C@@H](O)[C@H](O)[C@H]1OP(=O)(O)O", "note": "[alpha-trinositol, 1-D-Myo-inositol 1,2,6-triphosphate]", "values": [
      {"measurement": "activity of caspase-3 in gastrocnemius muscle", "setting": "[1]", "result": "significantly reduced"},
      {"measurement": "expression of the 20S proteasome α-subunits in gastrocnemius muscle", "setting": "[2]", "result": "down-regulates"},
      {"measurement": "anti-cachexia effect (body weight)", "setting": "[3]; 10 mg/kg s.c. three times per day", "result": "clear anti-cachexia effect"},
      {"measurement": "relative weight loss versus control group", "setting": "[3]; day 0 to day 5, AT group", "result": "half of the control group"},
      {"measurement": "body weight lost", "setting": "[3]; day 0 to day 5, AT group, s.c. three times per day (FIG. 3: 3×40 mg/kg), control lost ~4.7 g", "result": "~2.3", "unit": "g"},
      {"measurement": "body weight lost", "setting": "[3]; day 1 (first day of treatment) to day 5, AT group, control lost 3.3 g", "result": 1.15, "unit": "g"},
      {"measurement": "weight loss as fraction of the control group", "setting": "[3]; day 1 to day 5, AT group", "result": "⅓"},
      {"measurement": "expression of phospho eIF2α (ratio to total eIF2α)", "setting": "[4]", "result": "significant decrease"},
      {"measurement": "level of the phosphorylated (Ser2448) form of mTOR in gastrocnemius muscle", "setting": "[5]", "result": "completely reversed up to the values found in non tumour-bearing animals"},
      {"measurement": "absolute fat change from controls", "setting": "[6]; [8]", "result": "−19", "unit": "% by weight"},
      {"measurement": "absolute lean mass change from controls", "setting": "[6]; [8]", "result": "+11 % by weight"},
      {"measurement": "Body composition: Fat", "setting": "[6]; alpha-Trinositol 10 (mg/ml as printed), control 6.1 ± 2.1", "result": "4.9 ± 2.3", "unit": "% by weight"},
      {"measurement": "Body composition: Lean mass", "setting": "[6]; alpha-Trinositol 10 (mg/ml as printed), control 26.1 ± 1.6", "result": "27.1 ± 3.0", "unit": "% by weight"},
      {"measurement": "Body composition: Water", "setting": "[6]; alpha-Trinositol 10 (mg/ml as printed), control 67.8 ± 1.2", "result": "68.0 ± 2.0", "unit": "% by weight"},
      {"measurement": "absolute fat change from controls", "setting": "[6]; [9]", "result": "−46", "unit": "% by weight"},
      {"measurement": "absolute lean mass change from controls", "setting": "[6]; [9]", "result": "+15 % by weight"},
      {"measurement": "Body composition: Fat", "setting": "[6]; [9]", "result": "3.3 ± 0.5", "unit": "% by weight"},
      {"measurement": "Body composition: Lean mass", "setting": "[6]; [9]", "result": "28.6 ± 1.7", "unit": "% by weight"},
      {"measurement": "Body composition: Water", "setting": "[6]; [9]", "result": "68.1 ± 1.7", "unit": "% by weight"},
      {"measurement": "absolute fat change from controls", "setting": "[6]; [10]", "result": "−39", "unit": "% by weight"},
      {"measurement": "absolute lean mass change from controls", "setting": "[6]; [10]", "result": "+25 % by weight"},
      {"measurement": "Body composition: Fat", "setting": "[6]; [10]", "result": "3.7 ± 1.9", "unit": "% by weight"},
      {"measurement": "Body composition: Lean mass", "setting": "[6]; [10]", "result": "30.7 ± 2.5", "unit": "% by weight"},
      {"measurement": "Body composition: Water", "setting": "[6]; [10]", "result": "65.6 ± 1.7", "unit": "% by weight"},
      {"measurement": "tumour-induced increase of 4E-BP1 associated with eIF4E", "setting": "[7]", "result": "completely attenuated"}
    ]}
  ]
}
